Data taken from patent US12331035B2, “Bicyclic compound and use thereof” (SK BIOPHARMACEUTICALS CO., LTD., priority 2019, dated 2025).

What follows are compounds tested against T1, PRMT5-MEP50 enzyme complex (Homo sapiens, UniProt O14744) (assay: In vitro PRMT5 enzyme activity assay (methylation of histone H4 arginine H4R3, ELISA absorbance at 450 nm)). Conditions: S-adenosylmethionine, histone H4 peptide, 2 hours at room temperature, 8 points 10 μM to 0.128 nM.
T1 construct: purchased BPS Bioscience (USA) 51045
T1 sequence (O14744 2-637 limits assumed): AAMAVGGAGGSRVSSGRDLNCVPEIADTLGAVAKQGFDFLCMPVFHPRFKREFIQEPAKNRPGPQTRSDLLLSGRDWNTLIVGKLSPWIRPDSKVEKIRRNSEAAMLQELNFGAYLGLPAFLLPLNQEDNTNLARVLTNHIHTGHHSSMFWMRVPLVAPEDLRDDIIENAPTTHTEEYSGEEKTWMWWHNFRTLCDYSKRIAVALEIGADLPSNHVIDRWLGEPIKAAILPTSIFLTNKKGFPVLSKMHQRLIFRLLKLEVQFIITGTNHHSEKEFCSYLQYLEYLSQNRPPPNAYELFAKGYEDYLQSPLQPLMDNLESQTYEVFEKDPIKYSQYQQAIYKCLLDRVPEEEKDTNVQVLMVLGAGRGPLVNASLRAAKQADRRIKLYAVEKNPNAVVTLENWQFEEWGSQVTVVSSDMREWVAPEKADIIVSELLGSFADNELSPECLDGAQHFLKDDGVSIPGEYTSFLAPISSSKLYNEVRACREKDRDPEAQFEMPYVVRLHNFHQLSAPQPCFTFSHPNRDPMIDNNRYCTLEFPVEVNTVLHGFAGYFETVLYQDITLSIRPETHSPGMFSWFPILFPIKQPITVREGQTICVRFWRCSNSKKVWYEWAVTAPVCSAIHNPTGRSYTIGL
T1 sequence (Q9BQA1 2-342 partner limits assumed): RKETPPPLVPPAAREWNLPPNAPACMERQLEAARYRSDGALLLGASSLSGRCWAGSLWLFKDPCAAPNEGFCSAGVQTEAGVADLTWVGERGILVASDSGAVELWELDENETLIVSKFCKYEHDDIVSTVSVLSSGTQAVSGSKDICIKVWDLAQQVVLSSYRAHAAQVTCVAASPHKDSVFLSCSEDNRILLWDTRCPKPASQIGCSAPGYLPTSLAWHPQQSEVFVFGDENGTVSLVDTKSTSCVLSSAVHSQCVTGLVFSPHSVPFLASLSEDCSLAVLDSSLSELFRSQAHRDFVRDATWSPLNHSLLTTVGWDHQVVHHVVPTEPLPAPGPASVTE
Type: biochemical
Summary of the method: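 Human PRMT5-MEP50 (5 μg/mL working stock) with 2 μM SAM stock on histone H4 (1-20) peptide-coated plates, compound 8-point 1:5 series from 10 μM, 2 h at room temperature. H4R3 methylation detected by antibody/HRP ELISA, absorbance 450 nm; IC50 calculated.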

Row | Compound | IC50 [nM]
1 | CC(=O)N1CCN(c2ccc3c(c2)C2(CC2)CN(C[C@H](O)CN2CCc4ccccc4C2)C3=O)CC1 [Example 105, 6-(4-acetylpiperazin-1-yl)-2-[(2R)-3-(3,4-dihydro-1H-isoquinolin-2-yl)-2-hydroxy-propyl]spiro[3H-isoquinoline-4,1′-cyclopropane]-1-one] | 1 to 100
2 | O=C1c2ccc(N3CCC(N4CCCC4)CC3)cc2CCN1C[C@H](O)CN1CCc2ccccc2C1 [Example 106, 2-[(2R)-3-(3,4-dihydro-1H-isoquinolin-2-yl)-2-hydroxy-propyl]-6-(4-pyrrolidin-1-yl-1-piperidyl)-3,4-dihydroisoquinolin-1-one] | 1 to 100
3 | O=C1c2ccc(N3CCC(N4CCCCC4)CC3)cc2CCN1C[C@H](O)CN1CCc2ccccc2C1 [Example 107, 2-[(2R)-3-(3,4-dihydro-1H-isoquinolin-2-yl)-2-hydroxy-propyl]-6-[4-(1-piperidyl)-1-piperidyl]-3,4-dihydroisoquinolin-1-one] | 100 to 1000
4 | O=C1c2ccc(N3CCC(N4CCOCC4)CC3)cc2CCN1C[C@H](O)CN1CCc2ccccc2C1 [Example 108, 2-[(2R)-3-(3,4-dihydro-1H-isoquinolin-2-yl)-2-hydroxy-propyl]-6-(4-morpholino-1-piperidyl)-3,4-dihydroisoquinolin-1-one] | 100 to 1000
5 | COCCN1CCN(c2ccc3c(c2)CCN(C[C@H](O)CN2CCc4ccccc4C2)C3=O)CC1 [Example 109, 2-[(2R)-3-(3,4-dihydro-1H-isoquinolin-2-yl)-2-hydroxy-propyl]-6-[4-(2-methoxyethyl)piperazin-1-yl]-3,4-dihydroisoquinolin-1-one] | 100 to 1000
6 | CN(C)C1CCN(c2ccc3c(c2)CCN(C[C@H](O)CN2CCc4ccccc4C2)C3=O)CC1 [Example 110, 2-[(2R)-3-(3,4-dihydro-1H-isoquinolin-2-yl)-2-hydroxy-propyl]-6-[4-(dimethylamino)-1-piperidyl]-3,4-dihydroisoquinolin-1-one] | 100 to 1000
7 | CN(C)C1CCN(c2ccc3c(c2)C(C)(C)CN(C[C@H](O)CN2CCc4ccccc4C2)C3=O)CC1 [Example 111, 2-[(2R)-3-(3,4-dihydro-1H-isoquinolin-2-yl)-2-hydroxy-propyl]-6-[4-(dimethylamino)-1-piperidyl]-4,4-dimethyl-3H-isoquinolin-1-one] | 100 to 1000

Results, then the compound that gave them:

Row | IC50 [nM] | Compound
8 | 100 to 1000 | CC1(C)CN(C[C@H](O)CN2CCc3ccccc3C2)C(=O)c2ccc(N3CCOCC3)cc21 [Example 112, 2-[(2R)-3-(3,4-dihydro-1H-isoquinolin-2-yl)-2-hydroxy-propyl]-4,4-dimethyl-6-morpholino-3H-isoquinolin-1-one]
9 | 1 to 100 | O=C1c2ccc(OCCN3CCOCC3)cc2CCN1C[C@H](O)CN1CCc2ccccc2C1 [Example 113, 2-[(2R)-3-(3,4-dihydro-1H-isoquinolin-2-yl)-2-hydroxy-propyl]-6-(2-morpholinoethoxy)-3,4-dihydroisoquinolin-1-one]
10 | 100 to 1000 | CCN1CCC(Oc2ccc3c(c2)CCN(C[C@H](O)CN2CCc4ccccc4C2)C3=O)CC1 [Example 114, 2-[(2R)-3-(3,4-dihydro-1H-isoquinolin-2-yl)-2-hydroxy-propyl]-6-[(1-ethyl-4-piperidyl)oxy]-3,4-dihydroisoquinolin-1-one]
11 | 100 to 1000 | CCN1CCC(COc2ccc3c(c2)CCN(C[C@H](O)CN2CCc4ccccc4C2)C3=O)CC1 [Example 115, 2-[(2R)-3-(3,4-dihydro-1H-isoquinolin-2-yl)-2-hydroxy-propyl]-6-[(1-ethyl-4-piperidyl)methyloxy]-3,4-dihydroisoquinolin-1-one]
12 | 100 to 1000 | CN(C)C1CCCN(c2ccc3c(c2)CCN(C[C@H](O)CN2CCc4ccccc4C2)C3=O)C1 (stereo partly drawn) [Example 116, 2-[(2R)-3-(3,4-dihydro-1H-isoquinolin-2-yl)-2-hydroxy-propyl]-6-[3-(dimethylamino)-1-piperidyl]-3,4-dihydroisoquinolin-1-one]
